{
  "source": "patent EP1847550A2",
  "about": "“Peptides effective in the treatment of tumors and other conditions requiring the removal or destruction of cells” (NYMOX CORPORATION, priority 2001, dated 2007)",
  "key": {"[1]": {"test_system": "muscle tissue, subcutaneous connective tissue, and dermis", "assay": "Injection into skin, subcutaneous tissue and extremity skeletal muscle of normal rats, histopathology of injection foci at 24 hours", "type": "in vivo", "text": "The individual foci of infiltration were excised, fixed in 10% formalin, embedded in paraffin, and stained and examined by standard histopathological methods.\nThe controls received saline alone.\nTissues were excised, fixed in 10% formalin, embedded in paraffin, and stained and examined by standard histopathological methods."}, "[2]": {"test_system": "Rat prostate", "assay": "Intraprostatic infusion in rats, histology of the prostate gland after 72 hours", "type": "in vivo", "settings": "300 µl of 1 mg/mL in PBS pH 7.4 (1.0 mg/kg), sacrificed after 72 hours, H & E histology", "method": "Four rats were anesthetized with ether and given NTP peptide #7 by intraprostatic infusion. The injections consisted of 300 µl of NTP peptide #7 1 mg/mL in PBS pH 7.4. (1.0 mg/kg). Controls received injections of PBS alone or no injection. Rats were painlessly sacrificed after 72 hours. Prostate glands were dissected, fixed in 10% buffered formalin for 24 hours, embedded in paraffin, sectioned, and stained with H & E. For each animal the entire prostate gland was embedded and sectioned. All stained sections were examined histologically.\nNormal rats were injected in the prostate as in the above Example 2, except they were injected with NTP peptide #17. Rats were painlessly sacrificed after 72 hours and their prostate glands were examined as in Example 2."}},
  "note": "Ends that are not written are not given here.",
  "data": [
    {"sequence": "LSLPSSWDYG [NTP peptide #7, AD7c-NTP p335-343]", "values": [
      {"measurement": "effect on tissue at sites of injection", "setting": "[1]; injected in skin, subcutaneously and in extremity skeletal muscle, in saline, at 0.1-1 mg/mL, sacrificed at 24 hours", "result": "produced necrosis of tissue at the injection sites"},
      {"measurement": "spread of necrosis beyond the site of injection", "setting": "[1]; skin, subcutaneous and skeletal muscle injection, 24 hours", "result": "did not appear to spread far beyond the site of injection"},
      {"measurement": "effect on tissue at sites of injection (prostate)", "setting": "[2]", "result": "necrosis of tissue at the injection sites with loss of glandular epithelium, flattening and atrophy"}
    ]}
  ]
}
